Measured values: the NIST ThermoML archive (doi:10.1016/j.jct.2015.12.031)

How the values were obtained:
[1] = refractive index (Na D-line) (dimensionless); settings: Liquid, Standard Abbe refractometry
[2] = Liquid; for speed of sound: Sing-around technique in a fixed-path interferometer; for mass density: Vibrating tube method
[3] = mn = molality of the nth substance listed, in mol/kg; settings: 86.5 kPa, Liquid, m2 = 0; for speed of sound: Frequency=3 MHz, Sing-around technique in a fixed-path interferometer; for mass density: Vibrating tube method
[4] = refractive index (Na D-line) (dimensionless); mn = molality of the nth substance listed, in mol/kg; settings: 86.5 kPa, Liquid, Standard Abbe refractometry, m2 = 0

CCCCCCCCn1cc[n+](C)c1.[Br-] [1-methyl-3-octylimidazolium bromide]
86.5 kPa
Settings | mass density, 288.15 K [kg/m3] | mass density, 293.15 K [kg/m3] | mass density, 298.15 K [kg/m3] | mass density, 303.15 K [kg/m3] | refractive index, 288.15 K | refractive index, 293.15 K | refractive index, 298.15 K | refractive index, 303.15 K
[1] | – | – | – | – | 1.525 | 1.5236 | 1.5221 | 1.5206
[2] | 1179.37 | 1176.17 | 1172.98 | 1169.86 | – | – | – | –

[2], 86.5 kPa, Frequency=3 MHz
Settings | speed of sound [m/s]
288.15 K | 1605.2
293.15 K | 1581.9
298.15 K | 1561.9
303.15 K | 1542.8

CCCCCCn1cc[n+](C)c1.[Br-] [3-hexyl-1-methyl-1H-imidazolium bromide]
86.5 kPa
Settings | mass density, 288.15 K [kg/m3] | mass density, 293.15 K [kg/m3] | mass density, 298.15 K [kg/m3] | mass density, 303.15 K [kg/m3] | refractive index, 288.15 K | refractive index, 293.15 K | refractive index, 298.15 K | refractive index, 303.15 K
[1] | – | – | – | – | 1.5282 | 1.5268 | 1.5254 | 1.5237
[2] | 1231.02 | 1227.43 | 1223.74 | 1220.35 | – | – | – | –

[2], 86.5 kPa, Frequency=3 MHz
Settings | speed of sound [m/s]
288.15 K | 1639.4
293.15 K | 1610.4
298.15 K | 1587.1
303.15 K | 1568.7

CCCCCCCC [octane]
86.5 kPa
Settings | mass density, 288.15 K [kg/m3] | mass density, 293.15 K [kg/m3] | mass density, 298.15 K [kg/m3] | mass density, 303.15 K [kg/m3] | refractive index, 288.15 K | refractive index, 293.15 K | refractive index, 298.15 K | refractive index, 303.15 K
[1] | – | – | – | – | 1.3998 | 1.3973 | 1.3949 | 1.3924
[2] | 706.994 | 702.995 | 698.923 | 694.878 | – | – | – | –

[2], 86.5 kPa, Frequency=3 MHz
Settings | speed of sound [m/s]
288.15 K | 1214.5
293.15 K | 1193.3
298.15 K | 1172.4
303.15 K | 1151.5

CCCCCCCC [octane] + c1ccsc1
Settings | mass density, [3] [kg/m3] | refractive index, [4] | speed of sound, [3] [m/s]
288.15 K | 706.994 | 1.3998 | 1214.5
293.15 K | 702.995 | 1.3973 | 1193.3
298.15 K | 698.923 | 1.3949 | 1172.4
303.15 K | 694.878 | 1.3924 | 1151.5

c1ccsc1 [thiophene]
101.33 kPa
Settings | mass density, [2] [kg/m3] | refractive index, [1] | speed of sound, [2] [m/s]
298.15 K | 1058.56 | 1.5252 | 1279
303.15 K | – | – | 1258.7
